Assay: Stain removal from HAP disk, grape juice stain
Settings: disk A-4: grape juice stained disk treated the same way as P and Q (pH 8 SDS/HEPA buffer)

Question: Which “L* (lightness/darkness)” value does the source give for potassium ferrate(VI) here?
Answer: 103.5

Question: And the “a* (blue/red)” value?
Answer: −1.9

Question: What about the “appearance of disk after treatment” value of the same substance?
Answer: All stains were removed

Question: What about the “b* (yellow/green)” value of the same substance?
Answer: −3.1

Question: And the “reflectance of visible light at 450 nm” value?
Answer: 111.244

Question: What about the “reflectance of visible light at 750 nm” value of the same substance?
Answer: 103.795

Question: What about the “ΔE (grape juice stain)” value of the same substance?
Answer: 6.10

Source: patent US8663607B2, “Ferrate(VI)-containing compositions and methods of using ferrate(VI)” (Battelle Memorial Institute, priority 2007, dated 2014)
